Assay results as given in patent US20020042403A1, “Use of vitamin D analogs to treat conditions related to increased oxidative stress” (priority 1998, published 2002).

Columns and labels:
keratinocytes = experiment: cis-parinaric acid (PnA) assay of AMVN-induced phospholipid oxidation in live keratinocytes; format: cell-based, human
Description: Comparison of the Antioxidant Potency of ST-630 with that of Calcitriol and Alpha-Tocopherol in Live Keratinocytes Using the Cis-parinaric Acid (PnA) assay […].
Keratinocytes were incubated in the presence of a complex of PnA with human serum albumin (PnA-HSA) for up to […] to incorporate PnA into cellular phospholipids. […] The incorporation of PnA in the various phospholipids was differential and the amount of PnA incorporated was in the following order: PC>PEA>PI>PS>SPH>DPG. The constituent phospholipids were separated from the total lipid extract by HPLC. Major fluorescence peaks were identified using authentic phospholipids standards including DPG, PI, PEA, PS, PC and SPH.
To determine the effects of ST-630 on keratinocytes subjected to oxidative stress cell suspensions labeled with PnA were incubated with or without ST-630 (5-500 nM) in the dark at 37° C. for 1 hr in the presence of […] AMVN. Based on the known rate constant of AMVN decomposition under the experimental conditions employed (Niki, 1990), at 0.5 mM it can be estimated that 2.4 nanomoles (nmoles) of peroxyl radicals are generated per hour at 37° C. in each incubation containing 10^6 cells. Incubation of keratinocytes with AMVN for 1 hr induced significant oxidation of all the detected phospholipids.

human keratinocyte cells = experiment: AMVN-induced hypodiploidy (apoptosis) in keratinocytes, flow cytometric analysis; format: cell-based
Source text: Nucleus/DNA of cells treated with chemical or physical agents undergo changes primarily by the activation of the nucleases, before they lose the membrane integrity. Such changes are due to the loss of DNA or fragmentation of the nucleus into apoptotic bodies. Flow cytomeric analysis of a population of cells can reveal the appearance of a hypodiploid population and changes in the stages of the cell cycle.
AMVN induces changes in the cell cycle pattern and it can be modified either by calcitriol or ST-630. […] AMVN-derived peroxyl radicals primarily cause damage to the DNA and repair of DNA is accomplished during the G1 or G2 block. When keratinocytes were treated with various concentrations of ST-630 or calcitriol, and subsequently exposed to AMVN there was a considerable reduction in the level of hypodiploid cells. This effect was concentration-dependent. […] The highest concentration of calcitriol used, i.e. 500 nM reduced the hypodiploidy by 60%. […] 10 nM of ST-630 blocked the hypodiploidy by 60%.

[1] = tested on: human neutrophils (PMNLs); experiment: oxidative burst (superoxide production, cytochrome c reduction) in human neutrophils; format: cell-based
Source text: This example provides studies of oxidative burst and chemotaxis in human neutrophils. Oxidative (respiratory) burst in polymorphonuclear nuetrophils (PMN) is a major mechanism of defense against bacterial and/or viral pathogens. Oxidative burst is a complex process resulting in the generation by PMN of a huge amount of oxygen free radicals (superoxide and hydroxyl radicals) and chemically reactive substances—hydrogen peroxide and hypochlorite. The mechanism of cell activation involves such steps as increase of intracellular Ca^2+ concentration upon the interaction of activator, increasing the activity of protein kinase C, activation of NADPH oxidase with subsequent generation of superoxide radicals and hydrogen peroxide in the phagosomes and in the surrounding area, releasing and activation of myeloperoxidase and production of hypochlorite (HOCL).
The respiratory burst in PMNLs (isolated from fresh heparinized whole blood by dextran sedimentation) was initiated by the addition of N-formylmethionyl-leucyl-phenylalanine-methylester, FLPM (10^−7M), phorbol12,13-miristate, acetate, PMA (0.01 μg/ml) and opsonized zimozan (1.0 mg/ml). Superoxide production was assayed by the superoxide dismutase-22 inhibitable reduction of cytochrome c. […]

human neutrophils = experiment: chemotaxis in human neutrophils, multiwell chamber with FLPM; format: cell-based; conditions: higher concentrations of FLPM as chemotactic factor
Source text: For chemotaxis assay, chemotactic solution (medium 199 containing 0.5% BSA and FLPM) and multiwell chamber were used. The numbers of migrated neutrophils for different concentrations of FLPM (as a chemotactic factor) were within the usually observable range (see Table 4 in the Appendix). […] Despite this, the data are consistent with the effects of these compounds on superoxide release. Both ST-630 and calcitriol appear to be inhibitory when higher concentrations of FLPM were used.

Propionibacterium acnes = experiment: antibacterial disc inhibition zone test; format: cell-based; conditions: 6 mm filter paper discs, 48 hr at 36° C.
Description: Propionibacterium acnes, the target of inflammation in acne, was tested for its sensitivity to ST-630 and calcitriol using the inhibition method standardly employed for assessment of antibiotic efficiency. The strain (lyophilized) P. acnes (batch # 96-09SV) was received from the US type culture collection (Rockville, Md.). It was revitalized in 0.5 ml freshly boiled (10 min) reinforced Clostridial medium. ST-630 or calcitriol dissolved in 5.0 μl DMSO were applied onto the top of sterilized discs made of filter paper (6 mm). Erythromycin (15 μg) and DMSO (5.0 μl) were used as controls (positive and negative, respectively). The plates were incubated for 48 hr at 36° C. and the diameter of the inhibition zone was measured. […] The antibacterial activity of ST-630 at concentration 12.8 μg was about 2.7-fold lower than that of 15 μg of erythromycin. We conclude that ST-630 (but not calcitriol) exerts a significant inhibitory antibacterial activity towards P. acnes.

[2] = tested on: cultured human keratinocytes; experiment: 3H-thymidine incorporation into keratinocyte DNA (proliferation); format: cell-based; conditions: 42 h and 66 h after initial dosing with 10^-8 M
Description: Two experimental approaches were performed to assess the effect of ST-630 on the proliferation of cultured human keratinocytes. The first one was the ^3H-thymidine incorporation experiments that involved the use of a radiolabeled nucleotide which is specifically found in newly synthesized DNA molecules only. The second approach used in this study was the basal cell count. Although it is tedious, the second method is a more definitive way to determine cellular proliferation. Our results clearly establish the potency and the long-lasting effects of ST-630 in inhibiting cellular proliferation as determined by ^3H-thymidine and basal cell count.

cultured keratinocytes = conditions: cited from earlier work

Compound	concentration giving maximum antioxidant effectiveness/protection against AMVN-induced oxidation (keratinocytes; PnA-labeled keratinocytes, 0.5 mM AMVN, 1 hr, 37° C.)	concentration-dependency of the protective effect (keratinocytes; PnA-labeled keratinocytes, AMVN)	reduction of AMVN-induced hypodiploidy (human keratinocyte cells; 10 nM)	effect on cell cycle (human keratinocyte cells; 10 nM, then AMVN)	reduction of AMVN-induced hypodiploidy (human keratinocyte cells; 500 nM)	superoxide release with known stimulants (FLPM, PMA, opsonized zymosan) [1]	effect on chemotaxis (human neutrophils)	antibacterial activity (inhibition zone) (Propionibacterium acnes)	inhibitory (antiproliferative) activity with time [2]	metabolism in cultured keratinocytes (cultured keratinocytes)	antioxidant action compared with the other compounds (keratinocytes; concentrations 250 and 500 nm)
C=C1/C(=C\C=C2/CCC[C@]3(C)[C@@H]([C@H](C)CCCC(C)(C)O)CC[C@@H]23)C[C@@H](O)C[C@@H]1O [calcitriol, reference compound]	25 to 50 nM	two-phase protection pattern	40%	blocked the cells at the G2/M phase	60%	act to prime for supertoxide release	inhibitory	Neither DMSO nor calcitriol exerted any antibacterial activity	diminished with time	rapidly metabolized	
Cc1c(C)c2c(c(C)c1O)CC[C@@](C)(CCC[C@H](C)CCC[C@H](C)CCCC(C)C)O2 [vitamin E, Alpha-Tocopherol, reference compound]											comparable to that of ST-630
